# How the values were obtained:
# sVEGFR-1 = sVEGFR-1 production by human peripheral blood monocytes (ELISA, real-time PCR); type: cell-based; conditions: monocytes with 100 ng/mL GM-CSF plus 10 μM compound vs GM-CSF alone, FIG. 11B
# Description: Human peripheral blood mononuclear cells (PBMCs) were isolated from fresh peripheral blood leukocyte source packs (American Red Cross, Columbus Ohio) by density gradient centrifugation over Lymphocyte Separation Medium (Cellgro). Monocytes were purified from total PBMCs by layering over FBS. Monocytes were cultured in endotoxin-free RPMI-1640 supplemented with 1% fetal bovine serum (FBS), 0.1% human serum albumin (HSA), and 10 μg/mL of the endotoxin inhibitor polymyxin B. In some experiments, freshly isolated monocytes were differentiated into macrophages by three-day culture in media containing 10% FBS, 1% PSA (penicillin G sodium, streptomycin sulfate, and amphotericin B), and 20 ng/mL M-CSF. Macrophages were serum-starved for 2 hours prior to stimulation. Monocytes or monocyte-derived macrophages were treated for 24 hours with 10 ng/mL GM-CSF, 10 μM disclosed HIF-2α stabilizer, or an equivalent volume of the vehicle controls (PBS or DMSO, respectively). Cell-free culture supematants were harvested and analyzed for VEGF or sVEGFR-1 by ELISA (R&D Systems).
# Human monocytes were left untreated or were stimulated with 100 ng/mL GM-CSF at normoxia or at 0.5% O2. At various time-points, cells were harvested in Trizol reagent (Invitrogen) and RNA was extracted in chloroform and then purified using the RNeasy Minikit (Qiagen). In murine studies, organs harvested at the time of euthanasia were flash-frozen in liquid nitrogen, pulverized in liquid nitrogen, and then dissolved in Trizol. cDNA was generated from 1 μg of RNA using the Superscript First Strand Synthesis System (Invitrogen) and used for real-time PCR using previously described primers and SYBR Green PCR Master Mix (Applied Biosciences), according to the manufacturer's instructions. Data were analyzed according to the comparative threshold method and normalized against the β-actin internal control transcript. Results are semi-quantitative and represent the fold difference in transcript levels in a particular sample as compared with levels in untreated cells from the same donor.
# [1] = system: B16F10 murine melanoma cells; assay: Murine melanoma tumor model (B16F10 in C57BL/6 mice); type: in vivo; conditions: for tumor growth: FIG. 14A
# Description: Mice were injected with 1×10^5 B16F10 murine melanoma cells murine subcutaneously on the left flank. Once tumors become palpable (approximately 5 days), mice were randomly allocated to receive treatment with either: 20% polyethylene glycol (PEG) in 5% […] (vehicle control for the disclosed HIF-2α stabilizer) and PBS (vehicle control for GM-CSF), 20% PEG and GM-CSF (100 ng per mouse in a 50 μL volume), the disclosed HIF-2α stabilizer (17.5 mg/kg in a 100 μL volume) and PBS, or the disclosed HIF-2α stabilizer and GM-CSF (same doses). The PBS and GM-CSF were administered intratumorally, while the 20% PEG and the disclosed HIF-2α stabilizer were administered intraperitoneally. Mice were treated 3 times per week until tumors reached a size of 20 mm in any dimension (approximately 2.5 weeks), at which point mice were euthanized, in accordance with institutional policy. Tumor diameters were measured 3 times per week with calipers, and tumor volumes were calculated as follows: Tumor volume=0.5×[(large diameter)×(small diameter)^2].
# 6-8-week-old C57BL/6 mice were injected with 1×10^5 B16F10 murine melanoma cells murine subcutaneously on the left flank. Once tumors become palpable (approximately 5 days), mice were randomly allocated to receive treatment with either: 20% PEG-400 in 5% sucrose (vehicle for disclosed HIF-2α stabilizer) and PBS (vehicle for GM-CSF), 20% PEG-400 and GM-CSF (100 ng per mouse in a 50 μL volume), disclosed HIF-2α stabilizer (17.5 mg/kg mouse weight in a 100 μL volume) and PBS, or the disclosed HIF-2α stabilizer and GM-CSF (same concentrations). The disclosed HIF-2α stabilizer (or the vehicle control) was administered intraperitoneally, while GM-CSF (or the vehicle control) was administered intratumorally. Mice were treated […] 3 times per week until tumors reached a size of 20 mm in any dimension (approximately 2.5 weeks), at which point mice were be euthanized, in accordance with institutional policy. Tumor diameters were measured 3 times per week with calipers, and tumor volumes will be calculated as follows: Tumor volume=0.5×[(large diameter)×(small diameter)^2]. For experiments analyzing the effect of neutralizing sVEGFR-1 in combination with disclosed HIF-2α stabilizer treatment, mice were treated intraperitoneally 3×/week with either disclosed HIF-2α stabilizer or vehicle control, and intratumorally with either 4 μg anti-VEGFR-1 neutralizing antibody (R&D Systems) or 4 μg polyclonal goat IgG isotype control (Santa Cruz Biotechnology) in a 50 μL volume. All protocols were approved by the Ohio State University Animal Care and Use Committee, and mice were treated in accordance with institutional guidelines for animal care.
# The ANOVA test was used to compare independent measurements between multiple treatment groups. The data was log-transformed to normalize the variance across groups. P-values were adjusted using the Holm's procedure to conserve the type I error at 0.05 due to the multiple comparisons. For tumor growth data, changes in tumor volume over time were assessed via a longitudinal model. Tumor values were log-transformed, and estimated slopes (changes in tumor volume over time) were calculated with 95% confidence intervals. Estimated differences in tumor volume were calculated by a random-effects regression of the longitudinal data. For all analyses, p≦0.05 was considered statistically significant.
# 6-8-week-old C57BL/6 mice or SCID mice were injected with 1×10^5 B16F10 murine melanoma cells or 1×10^6 A375 human melanoma cells, respectively, subcutaneously on the left flank. […]
# VEGF mRNA = VEGF mRNA expression (qPCR) in wild type murine embryonic fibroblasts; type: cell-based; conditions: hypoxic conditions (1% O2), 1, 10 and 100 μM, vs. hypoxia control, FIG. 1A
# Description: Total RNA was isolated from tissues and cells by using TRIzol™ Reagent (Invitrogen) and the RNeasy kit (Qiagen), respectively. 1 μg RNA was used for reverse transcription using SuperScript II First-Strand Synthersis System (Invitrogen). cDNA's were amplified in a SYR Green or TaqMan Universal Master Mix (Applied Biosystems). Quantitative PCR (qPCR) was performed on ABI Prism 7700 sequence detection system. PCR conditions are: 10 min at 95° C., 40 cycles of 15 seconds at 95° C. and 1 minute at 60° C. The relative amount of mRNA was calculated after normalization to β-actin.
# Cells were cultured in DMEM (#11965-092, Invitrogen) supplemented with 10% fetal bovine serum (Invitrogen), 100 U/mL penicillin and […] streptomycin. For glucose deprivation, DMEM without glucose (#11966-025, Invitrogen) was used.
# Mouse embryonic fibroblasts (MEFs) were isolated from E12.5 embryos and immortalized by stable transfection with SV40 large T antigen.
compound,measurement,setting,value
"O=C(O)CNC(=O)c1ncc(-c2cccc(F)c2)cc1O [disclosed HIF-2α stabilizer, {[5-(3-Fluorophenyl)-3-hydroxypyridine-2-carbonyl]amino} acetic acid]","sVEGFR-1 production, protein level",sVEGFR-1; p=0.007,increased significantly
same,"sVEGFR-1 production, transcript level",sVEGFR-1; p=0.033,increased significantly
same,tumor growth / tumor volume,"[1]; B16F10 melanoma, stabilizer 17 mg/kg I.P., GM-CSF I.T., vs PBS control, FIG. 3",reduces tumor growth
same,increase in median survival (time to a tumor diameter of 20 mm),"[1]; B16F10 melanoma-bearing mice, stabilizer alone, p=0.023, FIG. 12B",3 days
same,average tumor volumes vs vehicle controls,"[1]; day 16 of treatment, 3×/week, GM-CSF 100 ng/mouse intratumoral, stabilizer 17.5 mg/kg intraperitoneal, each p<0.001",significantly smaller
same,tumor growth,"[1]; mice also treated with anti-sVEGFR-1 neutralizing antibody, p=0.245",no effect
same,tumor growth,"[1]; mice treated with isotype control antibody, p<0.001",decreased tumor growth
same,VEGF mRNA (relative amount),VEGF mRNA,dramatic reduction
